# Results taken from PMC8765435, “In Vitro Antimalarial Activity of Inhibitors of the Human GTPase Rac1” (Antimicrobial Agents and Chemotherapy, 2022).
# Experiments:
# Rac1 [1] = test system: Rac1; set-up: method as in PMID 22383527; details: Rac1 activity in MDA-MB-435 melanoma cells; cited from earlier work
# [2] = test system: human mammary epithelial cells; set-up: method as in PMID 25389450, PMID 25594952; details: at concentrations lower than 5 μM; cited from earlier work
# [3] = set-up: method as in PMID 25389450, PMID 25594952; details: mice, orally, 25 mg/kg three times a week for 55 days; cited from earlier work
# [4] = test system: P. falciparum asexual parasites, chloroquine-sensitive D10 strain; test: Drug susceptibility assay (pLDH), asexual parasites, D10 strain; format: cell-based, Plasmodium falciparum; details: Plasmodium falciparum, D10, chloroquine-sensitive D10 strain; read-out: IC50, D10 strain
# Method: (§1) Chloroquine (CQ)-sensitive (D10, wild-type 3D7, or transgenic 3D7elo1-pfs16-CBG99) and CQ-resistant (W2) strains of P. falciparum were cultured as described previously ([58]), with slight modifications, as detailed in the supplemental material.
# (§2) Asexual parasite growth was determined spectrophotometrically (optical density at 650 nm [OD650]) by measuring the activity of parasite lactate dehydrogenase (pLDH), according to a modified version of the method of Makler et al. ([59]). Gametocyte viability was measured by a luminescence method described previously ([60]). Details for the two methods are reported in the supplemental material. From either the OD or ALU (arbitrary luminescence units), the percentages of viability were calculated according to the formula 100 × (treated sample signal − blank signal)/(untreated control signal − blank signal). The blank for the pLDH assay was uninfected RBCs at the same hematocrit as that of parasitized RBCs, and the blank for the luminescence assay was parasites treated with a high dose of methylene blue. […]
# (§3) The CQ-sensitive (D10) and the CQ-resistant (W2) strains were maintained at 5% hematocrit […]
# (§4) supplemented with 1% AlbuMaxII (lipid-rich bovine serum albumin) (Invitrogen), 0.01% hypoxantine (Sigma), 20mM Hepes (EuroClone), 2 mM glutamine (EuroClone). […]
# (§5) In vitro P. falciparum drug susceptibility assay […]
# (§6) plate were transferred to a plate containing 100µl of Malstat reagent (0.11% [vol/vol] Triton- […]
# (§7) dinucleotide [APAD] [Sigma-Aldrich], adjusted to pH 9 with 1 M HCl) and 25 µl of PES/NBT […]
# (§8) pLDHassay. The plate was read at a wavelength of 650 nm using a microplate reader, Synergy4 […]
# (§9) Uninfected RBC at the same HCT than parasites were used as blank. […]
# [5] = test system: P. falciparum intraerythrocytic parasites; test: Parasite intraerythrocytic growth (Giemsa smears); format: cell-based, Plasmodium falciparum; details: 1.4 μM
# Method: A culture of erythrocytes freshly invaded by P. falciparum parasites was set up as previously described ([17]). Parasites were exposed to 1.4 μM EHop-016, and an untreated control was set up. Blood smears were taken at 20, 27, and 39 hpi, corresponding to late ring, trophozoite, and schizont stages, and then Giemsa stained and counted by optical microscopy in order to assess parasitemia. Pictures of the blood smears were taken with a Leica ICC50W camera. These experiments were performed in three biological replicates.
# 3D7 mature gametocytes = test: Gametocyte viability luminescence assay, mature gametocytes; format: cell-based, Plasmodium falciparum; details: Plasmodium falciparum, 3D7; stage V gametocytes, 72 h, luminescence; read-out: Mean IC50 ± SD, 3D7 mature gametocytes
# Method: as §1, §2
# strain (wild type or transgenic 3D7elo1-pfs16-CBG99 strain) was cultured in similar conditions, except for 10% naturally clotted Human O+ serum instead of AlbuMaxII and human type O-positive instead of A-positive RBCs. […]
# in a standard gas mixture consisting of 1% O2, 5% CO2, 94% N2. Immature (stage II-III) and mature (stage V) gametocytes were obtained as described1. Briefly, cultures were diluted to 0.5% parasitemia at 5% HCT, and the medium was changed daily until parasites were stressed by nutrient deprivation. N-acetylglucosamine (NAG) (Sigma-Aldrich) 50 mM was then added to clear residual asexual parasites: Stage II and III gametocytes were obtained 4 days after NAG addition to the culture, while stage IV and V gametocytes were used 11 to 13 days from NAG addition. Gametocyte stages were routinely checked on Giemsa-stained smears. […]
# Drug treated gametocyte cultures were transferred to 96-well black microplates and D-luciferin (1 mM in citrate buffer 0.1 M, pH 5.5) was added at a 1:1 volume ratio. Luminescence measurements were performed after 10 min with 500 ms integration time. Gametocytes treated
# [6] = test system: P. falciparum W2 asexual parasites; test: Association experiments (isobologram), W2 parasites; format: cell-based, Plasmodium falciparum; details: in combination with 1A116, W2 parasites
# Method: The effect of 1A116 on the IC50 of EHop-016 was determined by potentiation tests as previously described ([62]). Isobolograms were created by plotting a pair of fractional IC50s for each combination of EHop-016 and 1A116. […] The corresponding 1A116 fractional IC50s were calculated by dividing each fixed concentration by the IC50 of 1A116 alone and plotted on the vertical axis.
# [7] = test system: HMEC-1 human microvascular endothelial cells; test: Cell cytotoxicity MTT assay; format: cell-based
# Method: Cytotoxicity was evaluated on human microvascular endothelial cells (HMEC-1) as detailed in the supplemental material. […] Plates were then read on a microplate reader (Synergy 4; BioTek) at a wavelength of 550 nm (reference, 650 nm). […] All tests were performed in duplicate at least three times.
# The selectivity index (SI) is the ratio between the cytotoxic IC50 value against HMEC-1 cells and the parasitic IC50 value against the D10 strain and indicates the compound selectivity for the parasite.
# Cytotoxicity was evaluated on Human Microvascular Endothelial Cells (HMEC-1) maintained
# and 2 mM L-glutamine. Cells were seeded in 96 well flat bottom tissue culture clusters (1.5x104
# cells/well), let adhere overnight and treated with serial dilutions of test compounds . […]
# [8] = test system: P. falciparum asexual parasites, chloroquine-resistant W2 strain; test: Drug susceptibility assay (pLDH), asexual parasites, W2 strain; format: cell-based, Plasmodium falciparum; details: Plasmodium falciparum, W2, chloroquine-resistant W2 strain; read-out: IC50, W2 strain
# Method: as §1, §2, §3, §4, §5, §6, §7, §8, §9
# Rac1 [9] = biological target: Rac1 (Homo sapiens, UniProt P63000); test: G-LISA Rac1 activation assay in uninfected erythrocytes; format: cell-based; set-up: endogenous in cells; host or cells: erythrocytes from whole blood of 7 donors; details: 2.5 μM, 2 h
# Method: Whole blood collected from 7 donors was washed in RPMI 1640 four times to remove plasma, platelets, and leukocytes. The number of erythrocytes was determined by using a cell counting chamber. Erythrocytes were incubated for 2 h at 37°C with or without 2.5 μM EHop-016 and then washed. In each sample, the Rac1 activation state was measured with the G-LISA Rac1 activation assay luminescence-based biochemical kit (Cytoskeleton). Luminescence intensity was assessed with a BioTek Synergy HT plate reader. These experiments were performed in three biological replicates.
compound,measurement,setting,value
CCn1c2ccccc2c2cc(Nc3ccnc(NCCCN4CCOCC4)n3)ccc21 [EHop-016],IC50,Rac1 [1],1100 nM
same,viability of human mammary epithelial cells,[2],does not affect the viability
same,changes in weight or behavior,[3],did not cause any significant changes in weight or behavior
same,IC50,[4],139 ± 16 nM
same,parasitemia compared to untreated control,"[5]; 20, 27 and 39 hpi","significant, time-dependent reduction in parasitemia"
same,parasite developmental process,[5]; up to 39 hpi,complete block of the developmental process
same,IC50,3D7 mature gametocytes,4650 ± 520 nM
same,effect of combination (isobologram analysis),[6],additive effect
same,fractional inhibitory concentration (FIC),[6],< 2
same,IC50,"[7]; Homo sapiens, HMEC-1, MTT, 72 h, read-out: Mean HMEC-1 IC50 ± SD",5220 ± 1070 nM
same,SI (selectivity index),[7]; ratio IC50 against HMEC-1 cells / IC50 against D10 asexual parasites,37.8
same,IC50,[8],322 ± 28.5 nM
same,levels of active Rac1 in noninfected erythrocytes,Rac1 [9],does not inhibit Rac1 in noninfected erythrocytes
